According to patent publication US20170209544A1, “A PEPTIDE THERAPY TO COUNTERACT INSULIN RESISTANCE AND TYPE 2 DIABETES” (The Regents of the University of California, priority 2014, published 2017):
Where no end group is shown, it is not given here.

How the values were obtained:
[1] = test system: KO-DIO mice; experiment: GTT, ITT and fasting insulin in PST-treated KO-DIO mice; type: in vivo
Protocol: For glucose tolerance tests (GTT), glucose (1 mg/g) was injected intraperitoneally (IP-GTT) (at time zero) or gavaged orally (O-GTT) after a 12-hours fast. Tail-vein glucose levels were measured at −30, 0, 15, 30, 60, 90, and 120 minutes. For insulin tolerance tests (ITT), insulin (0.4 mU/g) was injected intraperitoneally and blood glucose levels were measured at the indicated time points. Chronic PST (5 μg/g/day) and PSTv1 (10 μg/day) treatments were carried out for 15 days. For acute treatment, either peptides or saline were injected 30 minutes before glucose or insulin injection. Synergy Software Kaleidagraph Version 4.0 calculated the area under the curve (AUC) for each line curve.
Despite increased obesity, KO-DIO mice maintained insulin sensitivity as shown by GTT and ITT. […] WT-DIO and KO-DIO male mice with mixed genetic background were fasted for 12 hrs and subjected to IP-GTT (2-way ANOVA: Strain, p<0.0001; Time, p<0.0001; Interaction, p<0.045; n=8, as shown in FIGS. 12A and 12B), oral GTT (2-way ANOVA: Strain, p<0.0001; Time, p<0.0001; Interaction, p=0.09; n=8, as shown in FIGS. 12C and 12D), or IP-ITT (2-way ANOVA: Treatment (WT), p<0.0001; Time, p<0.0001; Interaction, p=0.56; Treatment (KO), p<0.0001; Time, p<0.0001; Interaction, 0.43; n=9, as shown in FIGS. 12E and 12F), and AUC for glucose excursions were determined (see FIGS. 12B, 12D and 12F). […] and the corresponding AUC were shown in FIGS. 12E and 12F, respectively. Body weight-matched WT-DIO and KO-DIO mice were fasted for 12 hrs and subjected to clamp studies to determine glucose infusion rate (GIR, shown in FIG. 12G), glucose disposal rate (GDR, shown in FIG. 12H), (I) insulin-stimulated GDR (IS-GDR, shown in FIG. 12I) and % suppression of hepatic glucose production (HGP) (n=8-9, shown in FIG. 12J). Fasting (12 hrs) basal levels of plasma insulin before (FIG. 12K) and after (FIG. 12L) chronic PST treatment (5 μg/g BW/day, IP for 15 days) (n=6) were shown. “&” Indicates comparison between WT-DIO+Sal and KO-DIO+Sal, “$” indicates comparison between WT-DIO+Sal and WT-DIO+PST, “#” indicates comparison between KO-DIO+Sal and KO-DIO+PST, and “*” indicates comparison between the indicated groups. “*, $ or #”: P<0.05, “**, &&, ## or $$”: p<0.01, “***, ### or &&&”: p<0.001.

[2] = test system: adipocytes; experiment: Leptin production in adipocytes; type: cell-based
From the text: Mutant PST peptides were synthesized and screened. The peptides were synthesized as various deletion peptides of PST. Native PST (SEQ ID NO. 2) inhibited insulin-stimulated glucose uptake and leptin production in adipocytes. The inventors tested various deletion mutant PST peptides whether one or more of them would compete and prevent native PST action in adipocytes.

[3] = test system: KO-DIO mice; experiment: Adipose tissue inflammatory genes and plasma cytokines in PST-treated KO-DIO mice; type: in vivo; conditions: PST 5 μg/g BW for 15 days
Protocol: RNA from tissues was extracted using a kit (RNeasy Plus, Qiagen, Valencia, Calif.). After DNase digestion, 200 ng of RNA was transcribed into cDNA in a 20-μl reaction using a High Capacity cDNA Archive kit and this cDNA was amplified. PCR (25-μl reactions) contained 5 μl of cDNA, 2×SYBR Green PCR Master Mix, and 400 nM of each primer. Differences in the threshold cycle number (ΔCt) between the target gene, the housekeeping gene Gapdh and the ribosomal protein gene 36B4 were used to calculate differences in expression. Primer sequences are provided below.
Plasma cytokine concentrations were determined by a multiplex system from Quansys Biosciences (Logan, Utah).
As shown in FIGS. 17A-17H, PST modulates adipose tissue inflammation. A group of KO-DIO mice were injected with saline or PST (5 μg/g BW) for 15 days. Weight-matched saline-treated WT-DIO, KO-DIO and PST-treated KO-DIO mice were fasted for 12 hr and sacrificed. Blood was collected to measure plasma cytokine levels. Tissues were subjected to RNA extraction, cDNA preparation and RT-qPCR analysis for cytokines (FIG. 17A, n=6), pro-inflammatory genes (FIG. 17B: Cd11c & IL-12p40, n=6; FIG. 17C: iNos, n=6), and anti-inflammatory genes (FIG. 17D: Arg-1 & IL-10, n=6; FIG. 17E: Mgl-1, Mgl-2 and Ym1, n=6). “*” Denotes comparison between the indicated groups. “*”: P<0.05, “**”: p<0.01, “***”: p<0.001.

[4] = target: GRP78 (Homo sapiens, UniProt P11021); experiment: GRP78 ATPase enzymatic activity; type: biochemical
[5] = chronic PST 5 μg/g BW/day IP for 15 days, over WT-DIO levels

Chain of GRP78 (P11021 19-654, species assumed): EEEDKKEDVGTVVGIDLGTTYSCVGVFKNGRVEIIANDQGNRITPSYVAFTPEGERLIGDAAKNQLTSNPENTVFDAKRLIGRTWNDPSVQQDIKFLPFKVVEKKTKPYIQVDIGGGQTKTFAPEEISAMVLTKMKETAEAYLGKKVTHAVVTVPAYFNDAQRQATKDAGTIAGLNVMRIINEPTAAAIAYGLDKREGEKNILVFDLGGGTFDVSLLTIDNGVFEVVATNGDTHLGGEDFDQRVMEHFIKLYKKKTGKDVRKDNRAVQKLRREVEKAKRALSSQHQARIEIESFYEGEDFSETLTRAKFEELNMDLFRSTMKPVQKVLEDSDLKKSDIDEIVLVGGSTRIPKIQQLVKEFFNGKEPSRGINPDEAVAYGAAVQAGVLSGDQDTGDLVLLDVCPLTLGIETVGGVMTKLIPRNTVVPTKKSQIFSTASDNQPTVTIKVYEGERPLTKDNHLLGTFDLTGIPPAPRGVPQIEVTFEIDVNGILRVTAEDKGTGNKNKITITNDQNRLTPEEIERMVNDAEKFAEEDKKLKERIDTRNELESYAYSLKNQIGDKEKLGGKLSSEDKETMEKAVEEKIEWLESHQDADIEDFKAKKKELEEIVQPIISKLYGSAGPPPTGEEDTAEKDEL

PEGKGEQEHSQQKEEEEEMAVVPQGLFRG-amide (PEGKGEQEHSQQKEEEEEMAVVPQGLFRG-NH2) [PST, Wild-type human pancreastatin, a chromogranin A derived peptide]
blood glucose ([1]; PST for 5 days, Chga-KO mice on high fat diet): led to hyperglycemia | insulin sensitivity phenotype on HFD ([1]; chronic PST 5 μg/g BW for 15 days): abolished | fasting glucose [1, 5]: raised | fasting plasma insulin levels [1, 5]: raised | leptin production [2]: inhibited | plasma levels of IL-12p70 and Mcp-1 [3]: raised | plasma levels of Ifnγ, IL-6, Mip-1α, Kc and Tnfα [3]: had no effect | expression of Arg-1 and IL-10 ([3]; adipose tissue): significantly reduced | expression of Mgl-1 or Mgl-2 ([3]; adipose tissue): had no effect | expression of Ym-1 ([3]; adipose tissue): trend toward downregulating | expression of pro-inflammatory genes IL-1β, Tnfα, IL-6, Mcp-1 and iNos ([3]; adipose tissue): increased expression | GRP78's ATPase enzymatic activity [4]: inhibits
